In BindingDB's records for doi:10.1021/jm00089a010 (Abbott Laboratories, 1992):
Where a SMILES comes first, the peptide text is derived from it. [ ]: non-standard residue; d: D form. The star is where a group is joined. Propanoyl(3-(4-F-phenyl)) = O=C(CCc1ccc(F)cc1)*; Acryloyl(3-(pyridin-3-yl)) = O=C(C=Cc1cccnc1)*; Propanoyl(3-(4-Cl-Ph)) = O=C(CCc1ccc(Cl)cc1)*; 2Naphthoyl(6-OH) = O=C(c1ccc2cc(O)ccc2c1)*; Hydrocinnamoyl(4-Me) = Cc1ccc(CCC(=O)*)cc1; Quinoline3carbonyl = O=C(c1cnc2ccccc2c1)*; X6 = O=C(/C=C\c1ccc([N+](=O)[O-])cc1)*; X36 = O=C(C=Cc1ccc(OS(=O)(=O)O)cc1)*; X15 = O=C(/C=C\c1ccc(C(F)(F)F)cc1)*; Hydrocinnamoyl = O=C(CCc1ccccc1)*; X17 = COc1ccc(/C=C\C(=O)*)c(OC)c1; NMeF = CN[C@@H](Cc1ccccc1)C(=O)O; X30 = O=C(CCc1ccc(C(F)(F)F)cc1)*; X10 = O=C(/C=C\c1ccc(Cl)cc1Cl)*; X14 = O=C(c1cc2cc(O)ccc2[nH]1)*; X31 = COc1ccc(/C=C\C(=O)*)cc1OC; X7 = CN(C)c1ccc(/C=C\C(=O)*)cc1; X8 = COc1ccc2[nH]c(C(=O)*)cc2c1; X12 = O=C(c1cnc2cccc(O)c2c1)*; X11 = O=C(/C=C\c1ccc(O)cc1)*; X18 = O=C(c1cc2ccccc2[nH]1)*; X16 = O=C(/C=C\c1ccccc1O)*; X27 = O=C(Cc1ccc(O)cc1)*; X5 = O=C(CCc1cccc(O)c1)*; Boc = CC(C)(C)OC(=O)*

Biological target: Gastrin/cholecystokinin type B receptor (Cavia porcellus)
Assay: Inhibition of specific binding of [125I]BH-CCK-8 in guinea pig cortex

SMILES | IC50 [nM]
CC(C)(C)OC(=O)N[C@@H](Cc1c[nH]c2ccccc12)C(=O)N[C@@H](CCCCNC(=O)/C=C\c1ccc(Cl)cc1Cl)C(=O)N[C@@H](CC(=O)O)C(=O)N[C@@H](Cc1ccccc1)C(N)=O [3-{2-[2-tert-Butoxycarbonylamino-3-(1H-indol-3-yl)-propionylamino]-6-[3-(2,4-dichloro-phenyl)-acryloylamino]-hexanoylamino}-N-(1-carbamoyl-2-phenyl-ethyl)-succinamic acid; hydrate] (Boc-WK(X10)DF-NH2) | 5000
CC(C)(C)OC(=O)N[C@@H](Cc1c[nH]c2ccccc12)C(=O)N[C@@H](CCCCNC(=O)Cc1ccc(O)cc1)C(=O)N[C@@H](CC(=O)O)C(=O)N[C@@H](Cc1ccccc1)C(N)=O [3-{2-[2-tert-Butoxycarbonylamino-3-(1H-indol-3-yl)-propionylamino]-6-[2-(4-hydroxy-phenyl)-acetylamino]-hexanoylamino}-N-(1-carbamoyl-2-phenyl-ethyl)-succinamic acid; hydrate] (Boc-WK(X27)DF-NH2) | 480
CC(C)(C)OC(=O)N[C@@H](Cc1c[nH]c2ccccc12)C(=O)N[C@@H](CCCCNC(=O)c1cc2ccccc2[nH]1)C(=O)N[C@@H](CC(=O)O)C(=O)N[C@@H](Cc1ccccc1)C(N)=O (Boc-WK(X18)DF-NH2) | 2100
CC(C)(C)OC(=O)N[C@@H](Cc1c[nH]c2ccccc12)C(=O)N[C@@H](CCCCNC(=O)CCc1ccc(Cl)cc1)C(=O)N[C@@H](CC(=O)O)C(=O)N[C@@H](Cc1ccccc1)C(N)=O [3-{2-[2-tert-Butoxycarbonylamino-3-(1H-indol-3-yl)-propionylamino]-6-[3-(4-chloro-phenyl)-propionylamino]-hexanoylamino}-N-(1-carbamoyl-2-phenyl-ethyl)-succinamic acid; hydrate] (Boc-WK(Propanoyl(3-(4-Cl-Ph)))DF-NH2) | 7000
COc1ccc(/C=C\C(=O)NCCCC[C@H](NC(=O)[C@H](Cc2c[nH]c3ccccc23)NC(=O)OC(C)(C)C)C(=O)N[C@@H](CC(=O)O)C(=O)N[C@@H](Cc2ccccc2)C(N)=O)cc1OC [3-{2-[2-tert-Butoxycarbonylamino-3-(1H-indol-3-yl)-propionylamino]-6-[3-(3,4-dimethoxy-phenyl)-acryloylamino]-hexanoylamino}-N-(1-carbamoyl-2-phenyl-ethyl)-succinamic acid; hydrate] (Boc-WK(X31)DF-NH2) | 4000
COc1ccc(/C=C\C(=O)NCCCC[C@H](NC(=O)[C@H](Cc2c[nH]c3ccccc23)NC(=O)OC(C)(C)C)C(=O)N[C@@H](CC(=O)O)C(=O)N[C@@H](Cc2ccccc2)C(N)=O)c(OC)c1 [3-{2-[2-tert-Butoxycarbonylamino-3-(1H-indol-3-yl)-propionylamino]-6-[3-(2,4-dimethoxy-phenyl)-acryloylamino]-hexanoylamino}-N-(1-carbamoyl-2-phenyl-ethyl)-succinamic acid; hydrate] (Boc-WK(X17)DF-NH2) | 3000
COc1ccc2[nH]c(C(=O)NCCCC[C@H](NC(=O)[C@H](Cc3c[nH]c4ccccc34)NC(=O)OC(C)(C)C)C(=O)N[C@@H](CC(=O)O)C(=O)N[C@@H](Cc3ccccc3)C(N)=O)cc2c1 (Boc-WK(X8)DF-NH2) | 3000
CC(C)(C)OC(=O)N[C@@H](Cc1c[nH]c2ccccc12)C(=O)N[C@@H](CCCCNC(=O)CCc1ccccc1)C(=O)N[C@@H](CC(=O)O)C(=O)N[C@@H](Cc1ccccc1)C(N)=O [3-[2-[2-tert-Butoxycarbonylamino-3-(1H-indol-3-yl)-propionylamino]-6-(3-phenyl-propionylamino)-hexanoylamino]-N-(1-carbamoyl-2-phenyl-ethyl)-succinamic acid.2AcOH] (Boc-WK(Hydrocinnamoyl)DF-NH2) | 5900
CN(C(=O)[C@H](CC(=O)O)NC(=O)[C@H](CCCCNC(=O)C=Cc1ccc(OS(=O)(=O)O)cc1)NC(=O)[C@H](Cc1c[nH]c2ccccc12)NC(=O)OC(C)(C)C)[C@@H](Cc1ccccc1)C(N)=O (Boc-WK(X36)D[NMeF]-NH2) | 1000
CC(C)(C)OC(=O)N[C@@H](Cc1c[nH]c2ccccc12)C(=O)N[C@@H](CCCCNC(=O)c1cnc2ccccc2c1)C(=O)N[C@@H](CC(=O)O)C(=O)N[C@@H](Cc1ccccc1)C(N)=O (Boc-WK(Quinoline3carbonyl)DF-NH2) | 200
CN(C(=O)[C@H](CC(=O)O)NC(=O)[C@H](CCCCNC(=O)c1ccc2cc(O)ccc2c1)NC(=O)[C@H](Cc1c[nH]c2ccccc12)NC(=O)OC(C)(C)C)[C@@H](Cc1ccccc1)C(N)=O (Boc-WK(2Naphthoyl(6-OH))D[NMeF]-NH2) | 730
CC(C)(C)OC(=O)N[C@@H](Cc1c[nH]c2ccccc12)C(=O)N[C@@H](CCCCNC(=O)CCc1ccc(F)cc1)C(=O)N[C@@H](CC(=O)O)C(=O)N[C@@H](Cc1ccccc1)C(N)=O [3-{2-[2-tert-Butoxycarbonylamino-3-(1H-indol-3-yl)-propionylamino]-6-[3-(4-fluoro-phenyl)-propionylamino]-hexanoylamino}-N-(1-carbamoyl-2-phenyl-ethyl)-succinamic acid; hydrate] (Boc-WK(Propanoyl(3-(4-F-phenyl)))DF-NH2) | 9900
CN(C)c1ccc(/C=C\C(=O)NCCCC[C@H](NC(=O)[C@H](Cc2c[nH]c3ccccc23)NC(=O)OC(C)(C)C)C(=O)N[C@@H](CC(=O)O)C(=O)N[C@@H](Cc2ccccc2)C(N)=O)cc1 [3-{2-[2-tert-Butoxycarbonylamino-3-(1H-indol-3-yl)-propionylamino]-6-[3-(4-dimethylamino-phenyl)-acryloylamino]-hexanoylamino}-N-(1-carbamoyl-2-phenyl-ethyl)-succinamic acid; hydrate] (Boc-WK(X7)DF-NH2) | 2100
Cc1ccc(CCC(=O)NCCCC[C@H](NC(=O)[C@H](Cc2c[nH]c3ccccc23)NC(=O)OC(C)(C)C)C(=O)N[C@@H](CC(=O)O)C(=O)N[C@@H](Cc2ccccc2)C(N)=O)cc1 [3-[2-[2-tert-Butoxycarbonylamino-3-(1H-indol-3-yl)-propionylamino]-6-(3-p-tolyl-propionylamino)-hexanoylamino]-N-(1-carbamoyl-2-phenyl-ethyl)-succinamic acid] (Boc-WK(Hydrocinnamoyl(4-Me))DF-NH2) | 10000
CC(C)(C)OC(=O)N[C@@H](Cc1c[nH]c2ccccc12)C(=O)N[C@@H](CCCCNC(=O)/C=C\c1ccc(C(F)(F)F)cc1)C(=O)N[C@@H](CC(=O)O)C(=O)N[C@@H](Cc1ccccc1)C(N)=O [3-{2-[2-tert-Butoxycarbonylamino-3-(1H-indol-3-yl)-propionylamino]-6-[3-(4-trifluoromethyl-phenyl)-acryloylamino]-hexanoylamino}-N-(1-carbamoyl-2-phenyl-ethyl)-succinamic acid; hydrate] (Boc-WK(X15)DF-NH2) | 5300
CN(C(=O)[C@H](CC(=O)O)NC(=O)[C@H](CCCCNC(=O)C=Cc1cccnc1)NC(=O)[C@H](Cc1c[nH]c2ccccc12)NC(=O)OC(C)(C)C)[C@@H](Cc1ccccc1)C(N)=O (Boc-WK(Acryloyl(3-(pyridin-3-yl)))D[NMeF]-NH2) | 120
CC(C)(C)OC(=O)N[C@@H](Cc1c[nH]c2ccccc12)C(=O)N[C@@H](CCCCNC(=O)CCc1ccc(C(F)(F)F)cc1)C(=O)N[C@@H](CC(=O)O)C(=O)N[C@@H](Cc1ccccc1)C(N)=O [3-{2-[2-tert-Butoxycarbonylamino-3-(1H-indol-3-yl)-propionylamino]-6-[3-(4-trifluoromethyl-phenyl)-propionylamino]-hexanoylamino}-N-(1-carbamoyl-2-phenyl-ethyl)-succinamic acid; hydrate] (Boc-WK(X30)DF-NH2) | 19000
CC(C)(C)OC(=O)N[C@@H](Cc1c[nH]c2ccccc12)C(=O)N[C@@H](CCCCNC(=O)CCc1cccc(O)c1)C(=O)N[C@@H](CC(=O)O)C(=O)N[C@@H](Cc1ccccc1)C(N)=O [3-{2-[2-tert-Butoxycarbonylamino-3-(1H-indol-3-yl)-propionylamino]-6-[3-(3-hydroxy-phenyl)-propionylamino]-hexanoylamino}-N-(1-carbamoyl-2-phenyl-ethyl)-succinamic acid; hydarte] (Boc-WK(X5)DF-NH2) | 3000
CC(C)(C)OC(=O)N[C@@H](Cc1c[nH]c2ccccc12)C(=O)N[C@@H](CCCCNC(=O)c1cc2cc(O)ccc2[nH]1)C(=O)N[C@@H](CC(=O)O)C(=O)N[C@@H](Cc1ccccc1)C(N)=O (Boc-WK(X14)DF-NH2) | 830
CC(C)(C)OC(=O)N[C@@H](Cc1c[nH]c2ccccc12)C(=O)N[C@@H](CCCCNC(=O)/C=C\c1ccc(O)cc1)C(=O)N[C@@H](CC(=O)O)C(=O)N[C@@H](Cc1ccccc1)C(N)=O [3-{2-[2-tert-Butoxycarbonylamino-3-(1H-indol-3-yl)-propionylamino]-6-[3-(4-hydroxy-phenyl)-acryloylamino]-hexanoylamino}-N-(1-carbamoyl-2-phenyl-ethyl)-succinamic acid] (Boc-WK(X11)DF-NH2) | 730
CC(C)(C)OC(=O)N[C@@H](Cc1c[nH]c2ccccc12)C(=O)N[C@@H](CCCCNC(=O)c1cnc2cccc(O)c2c1)C(=O)N[C@@H](CC(=O)O)C(=O)N[C@@H](Cc1ccccc1)C(N)=O (Boc-WK(X12)DF-NH2) | 670
CC(C)(C)OC(=O)N[C@@H](Cc1c[nH]c2ccccc12)C(=O)N[C@@H](CCCCNC(=O)/C=C\c1ccccc1O)C(=O)N[C@@H](CC(=O)O)C(=O)N[C@@H](Cc1ccccc1)C(N)=O [3-{2-[2-tert-Butoxycarbonylamino-3-(1H-indol-3-yl)-propionylamino]-6-[3-(2-hydroxy-phenyl)-acryloylamino]-hexanoylamino}-N-(1-carbamoyl-2-phenyl-ethyl)-succinamic acid; hydrate] (Boc-WK(X16)DF-NH2) | 210
CC(C)(C)OC(=O)N[C@@H](Cc1c[nH]c2ccccc12)C(=O)N[C@@H](CCCCNC(=O)/C=C\c1ccc([N+](=O)[O-])cc1)C(=O)N[C@@H](CC(=O)O)C(=O)N[C@@H](Cc1ccccc1)C(N)=O [3-{2-[2-tert-Butoxycarbonylamino-3-(1H-indol-3-yl)-propionylamino]-6-[3-(4-nitro-phenyl)-acryloylamino]-hexanoylamino}-N-(1-carbamoyl-2-phenyl-ethyl)-succinamic acid; hydrate] (Boc-WK(X6)DF-NH2) | 4400
